Assay results published in patent publication EP0333831B1, “USE OF METALLOPORPHYRINS TO REVERSE THE TOXIC EFFECT OF TUMOR THERAPY” (priority 1987, dated 1989).

Experiments:
Type in all cases: in vivo, Sprague-Dawley rats
cytochrome P-450 = assay: hepatic microsomal cytochrome P-450 content in rats treated with doxorubicin, with or without SnPP
Experimental: (§1) The efficacy of the products of the invention for their newly discovered utility was established by experiments with three groups of male Sprague-Dawley rats (males, 150-200 grams, 16 per group). The rats were maintained on ad lib water and powdered rat chow (Purina) during the experiments. Group A was untreated, Group B was treated subcutaneously with doxorubicin alone on day 0, and Group C was treated with SnPP one day prior to doxorubicin which was administered on day 0.
(§2) The animals utilized in the tests were acclimated in metabolic cages maintained in a controlled environment with a 12h/12h light/dark cycle.
(§3) The compositions for parenteral administration were freshly prepared for each injection by addition of 0.4 N NaOH (20% v/v) to prepare a solution at pH 12, adjusted to pH 7.5 with 1 NHCl and made to final volume with 0.9% saline. The dosage level per injection was 50 µmol/kg b.w. Control animals were administered an equivalent amount of saline.
(§4) Animals were deprived of food but allowed free access to water for 16 hours prior to sacrifice. […] Cytochrome P-450 content was determined by the methods of Omura and Sato [J. Biol. Chem., 239: 2379 (1966) and 239: 2370 (1966)], and protein concentration by the method of Lowry et al [J. Biol. Chem., 193 265 (1951)] using crystalline bovine serum albumin as standard. […]

heme metabolism = system: heme metabolism
Experimental: as §1
It will be seen that the increase in heme oxygenase activity and decrease in ALA synthetase activity and microsomal content of cytochrome P-450 were at a maximum on day 2 and returned to normal by day 10.
as §2, §3
Animals were deprived of food but allowed free access to water for 16 hours prior to sacrifice. Livers were perfused in situ with ice-cold saline and homogenized in tris-HCL (0.01 M, pH 7.4) buffer containing sucrose (0.25 M). Homogenates (25% w/v) were centrifuged at 9000 g for 20 min, and the resulting mitochondrial pellet was used for the assay of ALA-synthetase activity. The 9000 xg supernatant was centrifuged at 105,000 xg for 60 min in a Beckman L5-50 ultracentrifuge. The microsomal pellet was resuspended in a minimum volume of potassium phosphate buffer (0.1 M, pH 7.4) and the cytosol was used as a source of biliverdin reductase. Cytochrome P-450 content was determined by the methods of Omura and Sato [J. Biol. Chem., 239: 2379 (1966) and 239: 2370 (1966)], and protein concentration by the method of Lowry et al [J. Biol. Chem., 193 265 (1951)] using crystalline bovine serum albumin as standard. […]

microsomal heme = assay: hepatic microsomal heme content in rats treated with doxorubicin, with or without SnPP
Experimental: as §1, §2, §3, §4

ALA synthetase = assay: hepatic ALA synthetase activity in rats treated with doxorubicin, with or without SnPP; conditions: SnPP (50 µmol/kg b.w.) one day prior to doxorubicin 10 mg/kg b.w.; compared to the group treated with doxorubicin alone
Experimental: as §1, §2, §3, §4

hepatic heme oxygenase = hepatic heme oxygenase activity in rats treated with doxorubicin, with or without SnPP; conditions: SnPP (50 µmol/kg b.w.) one day prior to doxorubicin 10 mg/kg b.w.; compared to the group treated with doxorubicin alone
Experimental: as §1, §2, §3, §4

[1] = doxorubicin 10 mg/kg b.w. subcutaneous, measured 2 days after administration, vs untreated, P < 0.05
[2] = SnPP one day prior to doxorubicin 10 mg/kg b.w., compared to the untreated group

Molecule | decrease in the microsomal content of cytochrome P-450 (cytochrome P-450; [1]) [%] | time of maximum increase in heme oxygenase activity and decrease in ALA synthetase activity and microsomal content of cytochrome P-450 (heme metabolism; rat, in vivo) [days] | time of return to normal of heme oxygenase activity, ALA synthetase activity and microsomal cytochrome P-450 (heme metabolism; rat, in vivo) [days] | decrease in the microsomal content of heme (microsomal heme; [1]) [%] | levels of hepatic cytochrome P-450 (cytochrome P-450; [2]) | prevention of doxorubicin-induced variations in heme metabolism (heme metabolism; metalloporphyrin administered one day prior to doxorubicin) | increase in hepatic ALA-synthetase activity (ALA synthetase) [%] | decrease in hepatic heme oxygenase activity (hepatic heme oxygenase) [%] | levels of microsomal heme (microsomal heme; [2])
COc1cccc2c1C(=O)c1c(O)c3c(c(O)c1C2=O)C[C@@](O)(C(=O)CO)C[C@@H]3O[C@H]1C[C@H](N)[C@H](O)[C@H](C)O1 [doxorubicin, reference compound] | 18 | 2 | ≤ 10 | 45 | – | – | – | – | –
tin protoporphyrin-IX [SnPP] | – | – | – | – | substantially identical to those in the untreated group | prevented the occurrence of these variations in heme metabolism | 35 | 92 | substantially identical to those in the untreated group
